Data taken from patent US11661581B2, “Use of CDK inhibitors to enhance growth and self-renewal of progenitor cells” (University of Massachusetts, priority 2017, dated 2023).
Entries after “also recorded” stand apart in the source; their conditions may differ.

Legend:
[1] = system: mouse bone marrow erythroid progenitors; experiment: Mouse adult bone marrow erythroid self-renewal culture, amplification of cell number; assay type: cell-based; conditions: for growth of mouse bone marrow erythroid progenitors (in words): drug at five times its respective IC50, two independent experiments
Description: (§1) Adult bone marrow mononuclear cells (StemCell Technologies) (A), mouse fetal liver (B) and mouse adult bone marrow (C-D), were cultured in the presence of Dex, Epo, SCF and IGF-1. Dex slows down and delays the transition from self-renewal to differentiation of early CFU-e progenitors, leading to their numerical amplification.
The doses chosen for all these inhibitors were approximately 5 times the IC50 for each drug.

[2] = system: mouse bone marrow CFU-e progenitors; experiment: CFU-e colony formation in semi-solid medium from mouse bone marrow cultures; assay type: cell-based; conditions: for increase in absolute CFU-e numbers relative to control cultures: day 5 of culture
Description: (17B) Mouse bone marrow erythroid progenitors, treated as described in A, but plated on day 5 of the culture in semi-solid medium, CFU-e colonies scored 72 hours later.

[3] = system: human adult bone marrow mononuclear cells (erythroid progenitors); experiment: Human bone marrow erythroid self-renewal culture, amplification of cell number; assay type: cell-based; conditions: peak on day 16; pooled from two independent experiments; roscovitine concentration not stated (1, 5 or 10 μM)
Description: as §1
(§2) We cultured hematopoietic tissue cells from either mouse adult bone marrow, mouse fetal liver (mid-gestation, embryonic day 13.5), or human adult bone marrow (StemCell Technologies, Vancouver, Canada), under conditions that facilitate self-renewal of colony-forming-unit-erythroid (CFU-e), in which the following are added to the culture medium: erythropoietin (Epo, 2 Units/ml), Stem Cell Factor (SCF, 100 ng/ml), Insulin-like Growth Factor 1 (IGF1, 40 ng/ml) and dexamethasone (Dex, 1 μM). Control cultures contained no other specialized additives; parallel cultures had, in addition, the CDK inhibitor roscovitine (1, 5 or 10 μM) (Pippin et al., J Clin Invest 100, 2512-2520 (1997); Meijer et al., European Journal of Biochemistry 243, 527-536 (1997)). […]

[4] = system: p57KIP2-deficient fetal liver CFUe; experiment: Dex-dependent CFUe self-renewal (expansion) culture of p57KIP2-deficient fetal liver cells; assay type: cell-based, mouse; conditions: self-renewal medium Epo+Dex; roscovitine 0.5 μM
Description: (§3) To isolate Ter119-negative cells, fresh fetal liver cells were stained with biotin-conjugated anti-Ter119 (BD Biosciences 553672) at 1:100, followed by EasySep magnetic separation (StemCell Technologies). Cells were grown in Stem-Pro-34 serum free medium supplemented with nutrient supplement (Invitrogen), 1 μM dexamethasone (Sigma), 100 ng/ml SCF (PeproTech), 40 ng/ml IGF1 (PeproTech), 2 U/ml Epo, 100 U/ml penicillin/streptomycin (Invitrogen) and 2 mM L-glutamine (Invitrogen). Cells were maintained at 2×10^6 cells/ml, and supplemented daily with fresh medium and growth factors. To test the effect of roscovitine on p57^KIP2−/− fetal liver cells in expansion culture, cells were grown and maintained as described above with the additional supplemented daily of 0.5 μM roscovitine (EMD Millipore 557360). To switch to differentiation medium, after being maintained in expansion medium for 4 to 5 days, Ter119-negative cells were isolated again using EasySep magnetic beads (StemCell Technologies). Cells were then transferred to IMDM (L-glutamine, 25 mM HEPES) (Gibco), 20% fetal calf serum (Gibco, HyClone), 100 U/ml penicillin/streptomycin (Invitrogen), […] β-mercapthoethanol (Sigma) and 2 U/ml Epo.
We also investigated whether CDK inhibition could underlie the essential role that p57^KIP2 plays in maintaining the viability of self-renewing CFUe.

[5] = system: mouse bone marrow self-renewing cultures; experiment: Flow cytometry and BrdU cell cycle analysis of mouse bone marrow self-renewing cultures; assay type: cell-based
Description: (18A) Flow cytometric analysis of mouse bone marrow self-renewing cultures, on day 6 of culture. […] The overall viability of cells in roscovitine-treated cultures was increased (not shown). Bottom panels: corresponding cell cycle analysis of cells in each culture. Cells were pulsed with BrdU at 33 μM for 25 min before analysis.
We examined cells in the self-renewing cultures using flow-cytometry. Cell surface markers CD71 and Ter119 denote the differentiation stage of erythroid progenitors and precursors in mouse hematopoietic tissue^81,41. […] By contrast, control cultures contained a substantial fraction (35%) of Ter119+ cells.

[6] = system: mouse fetal liver erythroid cells; experiment: Mouse fetal liver erythroid self-renewal culture (Example 2), amplification of cell number; assay type: cell-based; conditions: Dex, Epo, SCF, IGF-1
Description: as §1, §2

[7] = system: wild-type CFU-e; experiment: Dex-dependent CFUe self-renewal (expansion) culture of wild-type fetal liver cells; assay type: cell-based, mouse
Description: as §3
In three independent experiments, wild-type cells growing in roscovitine were amplified an average of 1.92±0.43 fold more than wild-type cells without treatment.

[8] = system: p57KIP2-/- CFUe; experiment: CFUe colony potential of p57KIP2-/- cells from Dex self-renewal cultures; conditions: day 11 of culture, 10^5 cells per dish, colonies scored 72 hours after plating
Description: (12B) Analysis of CFUe potential in Dex-dependent self-renewal cultures of p57^KIP2−/− cells treated with roscovitine (See FIG. 5I). On day 11 of culture, cells amplified in the presence or absence of roscovitine were plated at 10^5 cells per dish in Epo-containing semi-solid medium. The number of CFUe colonies formed per dish was scored 72 hours following plating.

[9] = system: human bone-marrow CFU-e progenitors; experiment: CFU-e colony formation in semi-solid medium from human bone marrow cultures; conditions: cells taken on day 11 of culture
Description: (17A) Human bone-marrow erythroid progenitors were amplified in cultures as in FIG. 1A. On day 11 of culture, cells were plated in semi-solid methylcellulose medium under differentiation conditions (in the presence of Epo and in the absence of Dex or SCF). CFU-e colonies were scored at 72 hours using diaminobenzidine staining to identify hemoglobinized cells. The absolute number of CFU-e progenitors obtained from the same initial starting number in each culture is shown. All statistically significant differences are noted (two-tailed t test, unequal variance).

[10] = system: human bone marrow self-renewing cultures; experiment: Flow cytometry of human bone marrow self-renewing cultures; assay type: cell-based; conditions: day 10 of culture
From the text: (18B) Flow cytometric analysis of human bone marrow self-renewing cultures, on day 10 of culture.

For CC(=O)c1c(C)c2cnc(Nc3ccc(N4CCNCC4)cn3)nc2n(C2CCCC2)c1=O [PD0332991], the “amplification of erythroid cell number versus control cultures” value ([1]; 0.1 μM) was “either no significant effect or an inhibitory effect”, the “growth of mouse bone marrow erythroid progenitors (in words)” value (from here on “growth”) [1] was “growth inhibition” and the “absolute number of CFU-e progenitors by colony formation assay versus control” value ([2]; 0.1 μM) was “either no significant effect or an inhibitory effect”.
For NS(=O)(=O)c1ccc(N/N=C2\C(=O)Nc3ccc(Br)cc32)cc1 [SC-221409], the “amplification of erythroid cell number versus control cultures” value ([1]; 0.5 μM) was “significant increase”, the “growth” value [1] was “improved growth” and the “absolute number of CFU-e progenitors by colony formation assay versus control” value ([2]; 0.5 μM) was “significant increase”.
CC[C@H](CO)Nc1nc(NCc2ccccc2)c2ncn(C(C)C)c2n1 [roscovitine] was tested, and the “peak amplification of cell number” value [3] was 9 fold, the “Dex-dependent self-renewal and expansion of p57KIP2-deficient CFUe” value [4] was “rescued self-renewal; also recorded: rescue the self-renewal; also recorded: successfully rescued” and the “number of S phase cells (in words)” value ([5]; BrdU 33 μM pulse for 25 min) was “fewer S phase cells”. The “speed of S phase, rate of BrdU incorporation (BrdU MFI in S phase gate)” value ([5]; BrdU 33 μM pulse for 25 min) was “substantially slower”, the “speed of S phase, rate of BrdU incorporation (BrdU MFI in S phase gate)” value ([5]; BrdU 33 μM pulse for 25 min, listed as Roscovitine) was “slower S phase” and the “terminally-differentiating Ter119+ erythroblasts compared with control (in words)” value ([5]; day 6 of culture) was “relative absence”. The “overall viability of cells in culture” value ([5]; day 6 of culture, data not shown) was “increased”, the “cells in the culture expressing Ter119” value ([5]; mouse bone marrow cultures, roscovitine-treated) was 6% and the “amplification of erythroid cell number in mouse fetal liver cultures (in words)” value [6] was “increased amplification; also recorded: significantly higher cell numbers”. For the same compound, the “amplification of wild-type CFU-e (in words)” value ([7]; Dex cultures) was “enhanced the amplification; also recorded: also enhanced”, the “amplification of wild-type cells relative to wild-type cells without treatment” value ([7]; average of three independent experiments) was 1.92±0.43 fold and the “progenitors from wild-type cells relative to absence of drug” value ([7]; period of 7-9 days) was 2 fold. For the same compound, the “normal expansion of CFUe cultures derived from wild-type littermates” value ([7]; roscovitine 0.5 μM) was “little effect”, the “CFUe colony forming potential of treated p57KIP2-/- cells versus untreated cells” value [8] was “retained the same potential; also recorded: preserved CFUe colony potential” and the “increase in absolute number of CFU-e progenitors over control cultures” value ([9]; 1 μM) was 3.9 fold. The “increase in absolute number of CFU-e progenitors relative to control” value ([9]; 5 μM) was 4.5 fold, the “growth” value [1] was “improved growth” and the “cell numbers in mouse adult bone marrow cultures (in words)” value ([1]; roscovitine 1, 5 or 10 μM) was “significantly higher cell numbers”. The “increase in absolute CFU-e numbers relative to control cultures” value ([2]; 1 μM) was 62%, the “increase in absolute CFU-e numbers relative to control cultures” value ([2]; 5 μM) was 40% and the “cells expressing glycophorin A (in words)” value [10] was “fewer cells are glycophorin A positive”. For the same compound, the “cells expressing glycophorin A (in words)” value ([10]; listed as Roscovitine) was “lower number”.
